# Assay results from PubChem BioAssay AID2060495 (Molecular Pharmacology Branch, DTP, NCI, 2025).
# Test system: 521955-158-R2-J5-PDC complex spheroid viability
# Experiment: Anticancer human tumor 521955-158-R2-J5-PDC patient-derived pancreatic carcinoma cell line growth inhibition [GQUAD]
# Conditions: for IC50: curve of first compound; for viability, T/C: stronger effect = lower value
# Description: DNA G-quadruplex Stabilizer Agents in Combinations in Complex Spheroids
# A high-throughput screen of multi-cell type tumor spheroids was designed to identify active combinations of DNA G-quadruplex stabilizer agents and targeted small molecules. Complex spheroids include a stromal component modeled by human endothelial cells (HUVEC) and fibroblasts modeled by human mesenchymal stem cells (MSCs). The concentration ranges selected for each drug and investigational agent were based upon clinically achievable concentrations if the clinical Cmax of the agent was known.
# Compounds. The drugs and investigational agents: pidnarulex (CX-5461; NSC782164), APTO-253 (NSC789042), BRACO-19 (NSC847499), peposertib (NSC802822), ceralasertib (NSC780249), elimusertib (NSC800525), camonsertib (NSC841442), AZD-1390 (NSC803789), olaparib (NSC753686), talazoparib (NSC767125), ART-558 (NSC835418), sotorasib (NSC818433), MRTX-1133 (NSC836407), SN-38 (NSC673596), topotecan (NSC609699), etoposide (NSC141540), doxorubicin (NSC123127), gemcitabine (NSC613327), 5-fluorouracil (NSC19893), paclitaxel (NSC125973), vemurafenib (NSC761431), panobinostat (NSC761190), R-306465 (JNJ-16241199; NSC773264), adavosertib (NSC754352), TP-3654 (NSC805149), carboplatin (NSC241240), KSQ-4279 (NSC840948), and staurosporine (NSC755774) were obtained from the National Cancer Institute (NCI) Developmental Therapeutics Program Chemical Repository (34). The FDA-approved anticancer drug set is available from the NCI Developmental Therapeutics Program. […] The stock solutions were prepared in dimethyl sulfoxide (DMSO, Sigma-Aldrich, St. Louis, MO, cat. D2650) at 800-fold the tested concentration and stored at -70 degrees C prior to their use. All drugs and investigational agents were tested over a range starting from a high concentration at or near the clinical Cmax and decreasing in half-log increments. If the clinical Cmax for an agent had not been determined, the highest concentration tested was 10 microM.
# 2.3 Cell Culture. All cells were maintained in an incubator at 37 degrees C and 5% CO2 with 95% humidity. The PDC lines were cultured according to standard operating procedures established by the NCI PDMR. All PDCs were thawed and cultured in Matrigel-coated flasks prepared with a working solution of 1X Ham's F-12 nutrient mix, without supplementation (Invitrogen, cat. 11765054), 100 U/mL penicillin-streptomycin (Invitrogen, cat. 15140122), and 2.5% Matrigel (Corning Inc., cat. 354248) for the first three passages. The 857933-349-R-J2-PDC line was cultured in 6C/Colon 1B media, which includes advanced DMEM/F-12 (Thermo Fisher Scientific, cat. 12634028), 10 mM HEPES (Thermo Fisher Scientific, cat. 15630080), 1X GlutaMAX supplement (Thermo Fisher Scientific, cat. 35050061), 0.1 mg/mL primocin (InvivoGen, cat. ant-pm-2), 10% defined fetal bovine serum, heat inactivated (HyClone Laboratories Inc., cat. SH30070.03HI), 50% L-WRN conditioned media (ATCC, cat. CRL-3276), 1.25 mM N-Acetyl-L-cysteine (Sigma-Aldrich, cat. A9165), 10 mM nicotinamide (Sigma-Aldrich, cat. N0636), 1X B-27 supplement (Thermo Fisher Scientific, cat. 17504044), 1X N-2 supplement (Thermo Fisher Scientific, cat. 17502048), 10 microM Y-27632 dihydrochloride (Tocris Bioscience, cat. 1254), and 50 ng/mL human EGF recombinant protein (Thermo Fisher Scientific, cat. PHG0311). The 485176-168-R4-J1-PDC line was cultured in Panc media, which includes all 6C/Colon 1B media components plus 100 ng/mL human FGF-10 (Thermo Fisher Scientific, cat. 100-26), 500 nM SB-431542 (Selleckchem, cat. S1067), and gastrin (Tocris, cat. 3006).
# […]
# [1] = second compound 0.0316 µM, first compound 0.0316 µM
# [2] = second compound 0.0316 µM, first compound 0.1 µM
# [3] = second compound 0.0316 µM, first compound 0.316 µM
# [4] = second compound 0.0316 µM, first compound 1 µM
# [5] = second compound 0.0316 µM, first compound 3.16 µM
# [6] = second compound 0.0316 µM, first compound 10 µM
# [7] = second compound 0.1 µM, first compound 0.0316 µM
# [8] = second compound 0.1 µM, first compound 0.1 µM
# [9] = second compound 0.1 µM, first compound 0.316 µM
# [10] = second compound 0.1 µM, first compound 1 µM
# [11] = second compound 0.1 µM, first compound 3.16 µM
# [12] = second compound 0.1 µM, first compound 10 µM
# [13] = second compound 0.316 µM, first compound 0.0316 µM
# [14] = second compound 0.316 µM, first compound 0.1 µM
# [15] = second compound 0.316 µM, first compound 0.316 µM
# [16] = second compound 0.316 µM, first compound 1 µM
# [17] = second compound 0.316 µM, first compound 3.16 µM
# [18] = second compound 0.316 µM, first compound 10 µM
# [19] = second compound 1 µM, first compound 0.0316 µM
# [20] = second compound 1 µM, first compound 0.1 µM
# [21] = second compound 1 µM, first compound 0.316 µM
# [22] = second compound 1 µM, first compound 1 µM
# [23] = second compound 1 µM, first compound 3.16 µM
# [24] = second compound 1 µM, first compound 10 µM
# [25] = second compound 3.16 µM, first compound 0.0316 µM
# [26] = second compound 3.16 µM, first compound 0.1 µM
# [27] = second compound 3.16 µM, first compound 0.316 µM
# [28] = second compound 3.16 µM, first compound 1 µM
# [29] = second compound 3.16 µM, first compound 3.16 µM
# [30] = second compound 3.16 µM, first compound 10 µM
# [31] = second compound 10 µM, first compound 0.0316 µM
# [32] = second compound 10 µM, first compound 0.1 µM
# [33] = second compound 10 µM, first compound 0.316 µM
# [34] = second compound 10 µM, first compound 1 µM
# [35] = second compound 10 µM, first compound 3.16 µM
# [36] = second compound 10 µM, first compound 10 µM
# 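Further: spheroids exposed to agents for one week before reading.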
# 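Wherever viability, T/C is given: 100% = DMSO vehicle control viability.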
smiles,measurement,setting,value
CC1COCCN1c1cc(C2(S(C)(=N)=O)CC2)nc(-c2ccnc3[nH]ccc23)n1 (centres undefined) + CN(C)c1ccc(Nc2c3ccc(NC(=O)CCN4CCCC4)cc3nc3cc(NC(=O)CCN4CCCC4)ccc23)cc1,IC50,second compound 0.0316 µM,879 nM
same,IC50,second compound 0.1 µM,832 nM
same,IC50,second compound 0.316 µM,1020 nM
same,IC50,second compound 1 µM,850 nM
same,IC50,second compound 3.16 µM,1330 nM
same,IC50,second compound 10 µM,1380 nM
same,"viability, T/C",[1],99.7%
same,"viability, T/C",[2],93.1%
same,"viability, T/C",[3],98%
same,"viability, T/C",[4],44.1%
same,"viability, T/C",[5],16.2%
same,"viability, T/C",[6],17.2%
same,"viability, T/C",[7],104%
same,"viability, T/C",[8],112%
same,"viability, T/C",[9],117%
same,"viability, T/C",[10],38.4%
same,"viability, T/C",[11],17.5%
same,"viability, T/C",[12],16.8%
same,"viability, T/C",[13],97.1%
same,"viability, T/C",[14],99.2%
same,"viability, T/C",[15],99%
same,"viability, T/C",[16],50.6%
same,"viability, T/C",[17],12.9%
same,"viability, T/C",[18],13.7%
same,"viability, T/C",[19],99.3%
same,"viability, T/C",[20],93.8%
same,"viability, T/C",[21],91.5%
same,"viability, T/C",[22],43.3%
same,"viability, T/C",[23],14.8%
same,"viability, T/C",[24],14.5%
same,"viability, T/C",[25],86.4%
same,"viability, T/C",[26],78.4%
same,"viability, T/C",[27],89.2%
same,"viability, T/C",[28],61.5%
same,"viability, T/C",[29],15.8%
same,"viability, T/C",[30],14.8%
same,"viability, T/C",[31],61%
same,"viability, T/C",[32],76.7%
same,"viability, T/C",[33],69.1%
same,"viability, T/C",[34],58.9%
same,"viability, T/C",[35],26.9%
same,"viability, T/C",[36],20.5%
COc1cc(C2c3cc4c(cc3C(OC3OC5COC(C)OC5C(O)C3O)C3COC(=O)C23)OCO4)cc(OC)c1O (centres undefined) + CN(C)c1ccc(Nc2c3ccc(NC(=O)CCN4CCCC4)cc3nc3cc(NC(=O)CCN4CCCC4)ccc23)cc1,IC50,second compound 0.0316 µM,771 nM
same,IC50,second compound 0.1 µM,808 nM
same,IC50,second compound 0.316 µM,689 nM
same,IC50,second compound 1 µM,650 nM
same,IC50,second compound 3.16 µM,551 nM
same,IC50,second compound 10 µM,594 nM
same,"viability, T/C",[1],109%
same,"viability, T/C",[2],89.3%
same,"viability, T/C",[3],65%
same,"viability, T/C",[4],45.1%
same,"viability, T/C",[5],30.1%
same,"viability, T/C",[6],17.1%
same,"viability, T/C",[7],82.9%
same,"viability, T/C",[8],104%
same,"viability, T/C",[9],76.5%
same,"viability, T/C",[10],43.1%
same,"viability, T/C",[11],32.5%
same,"viability, T/C",[12],20.1%
same,"viability, T/C",[13],94.2%
same,"viability, T/C",[14],85.3%
same,"viability, T/C",[15],69.5%
same,"viability, T/C",[16],40.1%
same,"viability, T/C",[17],25.6%
same,"viability, T/C",[18],18.2%
same,"viability, T/C",[19],89.5%
same,"viability, T/C",[20],93.5%
same,"viability, T/C",[21],55.8%
same,"viability, T/C",[22],45.8%
same,"viability, T/C",[23],28%
same,"viability, T/C",[24],19.2%
same,"viability, T/C",[25],97.5%
same,"viability, T/C",[26],78.9%
same,"viability, T/C",[27],61.4%
same,"viability, T/C",[28],39%
same,"viability, T/C",[29],26%
same,"viability, T/C",[30],19.9%
same,"viability, T/C",[31],79.1%
same,"viability, T/C",[32],71%
same,"viability, T/C",[33],55.2%
same,"viability, T/C",[34],43%
same,"viability, T/C",[35],36.1%
same,"viability, T/C",[36],23.3%
